In patent US20040067883A1, “Use of matrix metalloprotease inhibitors for the treatment of cancer” (priority 2000, published 2004):

Legend:
p38γ = target: T1, p38γ (Homo sapiens, UniProt P53778); settings: reported (ref. 27); cited from earlier work
T1 sequence (P53778 1-367): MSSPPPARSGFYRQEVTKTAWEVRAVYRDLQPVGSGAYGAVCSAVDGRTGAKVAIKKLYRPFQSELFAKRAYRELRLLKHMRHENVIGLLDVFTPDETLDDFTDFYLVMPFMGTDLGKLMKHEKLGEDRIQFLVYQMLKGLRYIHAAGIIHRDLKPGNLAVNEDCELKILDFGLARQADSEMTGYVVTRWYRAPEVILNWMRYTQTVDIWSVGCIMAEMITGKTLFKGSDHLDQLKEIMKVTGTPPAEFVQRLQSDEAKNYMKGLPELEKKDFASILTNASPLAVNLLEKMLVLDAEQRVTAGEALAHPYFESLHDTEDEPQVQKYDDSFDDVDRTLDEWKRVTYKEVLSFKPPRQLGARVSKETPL

UM-SCC-1 cells [1] = assay: In vitro invasion assay on Matrigel coated filters; assay type: cell-based, human; settings: 60 hours, serum-free medium, +/− S.E., 3 dishes
Protocol: Invasion assays were performed as described (20, 25) using filters with 8 μm pore size coated with ⅓ diluted Matrigel®/SFM (Becton Dickinson, Bedford, Mass.). […] For experiments utilizing a mouse monoclonal MMP-9 Antibody (#IM09L, Oncogene Research Products, Cambridge, Mass.) (0.5, 1, and 10 μg/ml) cells were either plated out in SFM plus antibody of SFM plus similar amounts of preimmune serum. The amount of invasion was determined on the basis of the MTT-activity on the lower side of the filter as a percentage of the total activity in the chamber.
The concentration of the carrier (DMSO) was maintained at 0.1%. […] The data are typical of triplicate experiments.
Invasion is expressed as the percentage of cells invading through Matrigel®. Invasion upon treatment with varying concentrations of the antibody recognizing the active and latent form of MMP-9 or preimmune serum provided by the manufacturer is expressed as average percentage+/−S.E. and represents 3 dishes in each group. The data are typical of triplicate experiments.

UM-SCC-1 cells [2] = assay: Cell growth curves (MTT-vital stain); assay type: cell-based, human; settings: 5 μM and 10 μM, up to 5 days, medium with 10% FBS
UMSCC-1 = settings: after treatment with phorbol myristate acetate (PMA); cited from earlier work
p38δ = target: T2, p38δ (Homo sapiens, UniProt O15264); settings: reported (ref. 27); cited from earlier work
T2 sequence (O15264 1-365): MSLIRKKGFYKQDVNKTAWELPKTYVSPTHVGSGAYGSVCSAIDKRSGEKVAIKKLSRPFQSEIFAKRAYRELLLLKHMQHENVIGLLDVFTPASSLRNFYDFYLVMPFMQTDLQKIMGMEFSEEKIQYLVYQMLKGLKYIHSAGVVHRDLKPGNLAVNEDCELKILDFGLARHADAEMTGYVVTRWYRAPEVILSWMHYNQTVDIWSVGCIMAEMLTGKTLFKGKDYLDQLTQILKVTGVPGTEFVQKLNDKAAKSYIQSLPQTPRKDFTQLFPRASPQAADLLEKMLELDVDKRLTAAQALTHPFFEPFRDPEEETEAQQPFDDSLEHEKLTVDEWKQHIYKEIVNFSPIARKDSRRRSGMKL

MMP-9 = settings: after treatment with phorbol myristate acetate (PMA); cited from earlier work
matrix-metalloproteases = settings: cited from earlier work

Row | SMILES | inhibition of p38γ (p38γ) | reduction of in-vitro invasion (UM-SCC-1 cells [1]; 5 μM) | reduction of in-vitro invasion (UM-SCC-1 cells [1]; 10 μM) | effect on cell growth (UM-SCC-1 cells [2]) | inhibition of enhanced in-vitro invasiveness (UMSCC-1) | inhibition of p38δ (p38δ) | inhibition of enhanced MMP-9 secretion (MMP-9) | IC50 value (matrix-metalloproteases)
1 | C[S+]([O-])c1ccc(-c2nc(-c3ccncc3)c(-c3ccc(F)cc3)[nH]2)cc1 (centres unmarked) [SB 203580] | not inhibited | 43+/−9% | 69+/−8% | does not affect cell growth | could be inhibited | not inhibited | could be inhibited | 
2 | CNC(=O)[C@@H](NC(=O)[C@H](CC(C)C)[C@H](O)C(=O)NO)C(C)(C)C [marimastat] |  |  |  |  |  |  |  | micromolar range
